In patent publication US8445501B2, “Substituted 7-carboxamido-pyrrolo[3,2-d]pyrimidines” (Takeda GmbH, priority 2008, dated 2013):

Molecular target: T1, human PDE5 (Homo sapiens, UniProt O76074)
T1 construct: from tissue; host or cells: platelets from fresh blood of human donors (lysate, 10,000 g supernatant)
Assay: Inhibition of the type 5 phosphodiesterase (PDE5) activity, modified SPA test with platelet lysate
Format: biochemical
Settings: PDE5 from human platelet lysate, 0.5 μM cGMP
Summary of the method: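 SPA-based cGMP hydrolysis, [3H]cGMP tracer in 0.5 μM cGMP, by sonicated human platelet lysate; motapizone (1 μM) and a PDE2 inhibitor (10 nM) block other PDEs. Reaction 15 min at 37 °C after 5 min preincubation, quenched with beads containing IBMX. IC50 from concentration-effect curves.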

Compound | IC50 [pM]
COCC(=O)N1CCC(NC(=O)c2c[nH]c3c(-c4ccc(F)cc4OCC4CC4)ncnc23)CC1 [Example 83, 4-(2-Cyclopropylmethoxy-4-fluoro-phenyl)-5H-pyrrolo[3,2-d]pyrimidine-7-carboxylic acid [1-(2-methoxy-acetyl)piperidin-4-yl]-amide] | 5130
CC(=O)N1CCC(NC(=O)c2c[nH]c3c(-c4cc(F)ccc4OCC4CC4)ncnc23)CC1 [Example 84, 4-(2-Cyclopropylmethoxy-5-fluoro-phenyl)-5H-pyrrolo[3,2-d]pyrimidine-7-carboxylic acid (1-acetyl-piperidin-4-yl)-amide] | 2950
CCC(=O)N1CCC(NC(=O)c2c[nH]c3c(-c4cc(F)ccc4OCC4CC4)ncnc23)CC1 [Example 85, 4-(2-Cyclopropylmethoxy-5-fluoro-phenyl)-5H-pyrrolo[3,2-d]pyrimidine-7-carboxylic acid (1-propionyl-piperidin-4-yl)-amide] | 1580
COCC(=O)N1CCC(NC(=O)c2c[nH]c3c(-c4cc(F)ccc4OCC4CC4)ncnc23)CC1 [Example 86, 4-(2-Cyclopropylmethoxy-5-fluoro-phenyl)-5H-pyrrolo[3,2-d]pyrimidine-7-carboxylic acid [1-(2-methoxy-acetyl)piperidin-4-yl]-amide] | 3980
CC(=O)N[C@H]1CC[C@H](NC(=O)c2c[nH]c3c(-c4cc(F)ccc4OCC4CC4)ncnc23)CC1 [Example 87, trans-4-(2-Cyclopropylmethoxy-5-fluoro-phenyl)-5H-pyrrolo[3,2-d]pyrimidine-7-carboxylic acid (4-acetylamino-cyclohexyl)-amide] | 1120
CCC(=O)N[C@H]1CC[C@H](NC(=O)c2c[nH]c3c(-c4cc(F)ccc4OCC4CC4)ncnc23)CC1 [Example 88, trans-4-(2-Cyclopropylmethoxy-5-fluoro-phenyl)-5H-pyrrolo[3,2-d]pyrimidine-7-carboxylic acid (4-propionylamino-cyclohexyl)-amide] | 1660
COCC(=O)N[C@H]1CC[C@H](NC(=O)c2c[nH]c3c(-c4cc(F)ccc4OCC4CC4)ncnc23)CC1 [Example 89, trans-4-(2-Cyclopropylmethoxy-5-fluoro-phenyl)-5H-pyrrolo[3,2-d]pyrimidine-7-carboxylic acid [4-(2-methoxy-acetylamino)-cyclohexyl]-amide] | 1290
CC(=O)N[C@H]1CC[C@H](NC(=O)c2c[nH]c3c(-c4ccccc4OCC4CC4)ncnc23)CC1 [Example 90, trans-4-(2-Cyclopropylmethoxy-phenyl)-5H-pyrrolo[3,2-d]pyrimidine-7-carboxylic acid (4-acetylamino-cyclohexyl)-amide] | 5620
COCC(=O)N[C@H]1CC[C@H](NC(=O)c2c[nH]c3c(-c4ccccc4OCC4CC4)ncnc23)CC1 [Example 91, trans-4-(2-Cyclopropylmethoxy-phenyl)-5H-pyrrolo[3,2-d]pyrimidine-7-carboxylic acid [4-(2-methoxy-acetylamino)-cyclohexyl]-amide] | 6310
CCOC(=O)N[C@H]1CC[C@H](NC(=O)c2c[nH]c3c(-c4ccccc4OCC4CC4)ncnc23)CC1 [Example 92, trans-(4-{[4-(2-Cyclopropylmethoxy-phenyl)-5H-pyrrolo[3,2-d]pyrimidine-7-carbonyl]-amino}-cyclohexyl)-carbamic acid ethyl ester] | 3390
O=C(N[C@H]1CC[C@H](NC(=O)C2CC2)CC1)c1c[nH]c2c(-c3ccccc3OCC3CC3)ncnc12 [Example 93, trans-4-(2-Cyclopropylmethoxy-phenyl)-5H-pyrrolo[3,2-d]pyrimidine-7-carboxylic acid [4-(cyclopropanecarbonyl-amino)cyclohexyl]-amide] | 2510
CC(=O)N1CCC(NC(=O)c2c[nH]c3c(-c4ccccc4OCC4CC4)ncnc23)CC1 [Example 94, 4-(2-Cyclopropylmethoxy-phenyl)-5H-pyrrolo[3,2-d]pyrimidine-7-carboxylic acid (1-acetyl-piperidin-4-yl)-amide] | 8710
CCOC(=O)N1CCC(NC(=O)c2c[nH]c3c(-c4ccccc4OCC4CC4)ncnc23)CC1 [Example 95, 4-{[4-(2-Cyclopropylmethoxy-phenyl)-5H-pyrrolo[3,2-d]pyrimidine-7-carbonyl]-amino}-piperidine-1-carboxylic acid ethyl ester] | 3310
O=C(NC1CCN(C(=O)C2CC2)CC1)c1c[nH]c2c(-c3ccccc3OCC3CC3)ncnc12 [Example 96, 4-(2-Cyclopropylmethoxy-phenyl)-5H-pyrrolo[3,2-d]pyrimidine-7-carboxylic acid (1-cyclopropanecarbonyl-piperidin-4-yl)-amide] | 2140
CCC(=O)N1CCC(NC(=O)c2c[nH]c3c(-c4cc(OC)c(F)cc4OCC4CC4)ncnc23)CC1 [Example 97, 4-(2-Cyclopropylmethoxy-4-fluoro-5-methoxy-phenyl)-5H-pyrrolo[3,2-d]pyrimidine-7-carboxylic acid (1-propionyl-piperidin-4-yl)-amide] | 117
COCC(=O)N1CCC(NC(=O)c2c[nH]c3c(-c4cc(OC)c(F)cc4OCC4CC4)ncnc23)CC1 [Example 98, 4-(2-Cyclopropylmethoxy-4-fluoro-5-methoxy-phenyl)-5H-pyrrolo[3,2-d]pyrimidine-7-carboxylic acid [1-(2-methoxy-ethanoyl)-piperidin-4-yl]-amide] | 219
COc1cc(-c2ncnc3c(C(=O)NC4CCN(C(C)=O)CC4)c[nH]c23)c(OCC2CC2)cc1F [Example 99, 4-(2-Cyclopropylmethoxy-4-fluoro-5-methoxy-phenyl)-5H-pyrrolo[3,2-d]pyrimidine-7-carboxylic acid (1-acetyl-piperidin-4-yl)-amide] | 178
COc1cc(-c2ncnc3c(C(=O)N[C@@H]4CCCN(C(C)=O)C4)c[nH]c23)c(OCC2CC2)cc1F [Example 100, 4-(2-Cyclopropylmethoxy-4-fluoro-5-methoxy-phenyl)-5H-pyrrolo[3,2-d]pyrimidine-7-carboxylic acid ((R)-1-acetyl-piperidin-3-yl)-amide] | 126
CCC(=O)N1CCC[C@@H](NC(=O)c2c[nH]c3c(-c4cc(OC)c(F)cc4OCC4CC4)ncnc23)C1 [Example 101, 4-(2-Cyclopropylmethoxy-4-fluoro-5-methoxy-phenyl)-5H-pyrrolo[3,2-d]pyrimidine-7-carboxylic acid ((R)-1-propionyl-piperidin-3-yl)-amide] | 162
COCC(=O)N1CCC[C@@H](NC(=O)c2c[nH]c3c(-c4cc(OC)c(F)cc4OCC4CC4)ncnc23)C1 [Example 102, 4-(2-Cyclopropylmethoxy-4-fluoro-5-methoxy-phenyl)-5H-pyrrolo[3,2-d]pyrimidine-7-carboxylic acid [(R)-1-(2-methoxy-acetyl)piperidin-3-yl]-amide] | 115
CCC(=O)N1CC[C@@H](NC(=O)c2c[nH]c3c(-c4cc(OC)c(F)cc4OCC4CC4)ncnc23)C1 [Example 104, 4-(2-Cyclopropylmethoxy-4-fluoro-5-methoxy-phenyl)-5H-pyrrolo[3,2-d]pyrimidine-7-carboxylic acid ((R)-1-propionyl-pyrrolidin-3-yl)-amide] | 234
COCC(=O)N1CC[C@@H](NC(=O)c2c[nH]c3c(-c4cc(OC)c(F)cc4OCC4CC4)ncnc23)C1 [Example 105, 4-(2-Cyclopropylmethoxy-4-fluoro-5-methoxy-phenyl)-5H-pyrrolo[3,2-d]pyrimidine-7-carboxylic acid [(R)-1-(2-methoxy-acetyl)-pyrrolidin-3-yl]amide] | 372
COc1cc(OCC2CC2)c(-c2ncnc3c(C(=O)N[C@H]4CC[C@H](NC(C)=O)CC4)c[nH]c23)cc1F [Example 106, trans-4-(2-Cyclopropylmethoxy-5-fluoro-4-methoxy-phenyl)-5H-pyrrolo[3,2-d]pyrimidine-7-carboxylic acid (4-acetylamino-cyclohexyl)-amide] | 891
COCC(=O)N[C@H]1CC[C@H](NC(=O)c2c[nH]c3c(-c4cc(F)c(OC)cc4OCC4CC4)ncnc23)CC1 [Example 107, trans-4-(2-Cyclopropylmethoxy-5-fluoro-4-methoxy-phenyl)-5H-pyrrolo[3,2-d]pyrimidine-7-carboxylic acid [4-(2-methoxy-acetylamino)-cyclohexyl]-amide] | 537
COc1cc(OCC2CC2)c(-c2ncnc3c(C(=O)NC4CCN(C(C)=O)CC4)c[nH]c23)cc1F [Example 108, 4-(2-Cyclopropylmethoxy-5-fluoro-4-methoxy-phenyl)-5H-pyrrolo[3,2-d]pyrimidine-7-carboxylic acid (1-acetyl-piperidin-4-yl)-amide] | 661
COCC(=O)N1CCC(NC(=O)c2c[nH]c3c(-c4cc(F)c(OC)cc4OCC4CC4)ncnc23)CC1 [Example 109, 4-(2-Cyclopropylmethoxy-5-fluoro-4-methoxy-phenyl)-5H-pyrrolo[3,2-d]pyrimidine-7-carboxylic acid [1-(2-methoxy-ethanoyl)-piperidin-4-yl]amide] | 692
CCC(=O)N1CCC(NC(=O)c2c[nH]c3c(-c4cc(F)c(OC)cc4OCC4CC4)ncnc23)CC1 [Example 110, 4-(2-Cyclopropylmethoxy-5-fluoro-4-methoxy-phenyl)-5H-pyrrolo[3,2-d]pyrimidine-7-carboxylic acid (1-propionyl-piperidin-4-yl)-amide] | 214
CCC(=O)N1CCC[C@@H](NC(=O)c2c[nH]c3c(-c4cc(F)c(OC)cc4OCC4CC4)ncnc23)C1 [Example 111, 4-(2-Cyclopropylmethoxy-5-fluoro-4-methoxy-phenyl)-5H-pyrrolo[3,2-d]pyrimidine-7-carboxylic acid ((R)-1-propionyl-piperidin-3-yl)-amide] | 105
COCC(=O)N1CCC[C@@H](NC(=O)c2c[nH]c3c(-c4cc(F)c(OC)cc4OCC4CC4)ncnc23)C1 [Example 112, 4-(2-Cyclopropylmethoxy-5-fluoro-4-methoxy-phenyl)-5H-pyrrolo[3,2-d]pyrimidine-7-carboxylic acid [(R)-1-(2-methoxy-ethanoyl)-piperidin-3-yl]amide] | 138
